Measurements as given in patent US10392389B2, “Heterocyclic compounds for the inhibition of PASK” (BioEnergenix, LLC, priority 2012, dated 2019).

Columns and labels:
[1] = target: T1, PIM1 (NP_002639; human full-length protein, 6×His tagged) (Homo sapiens, UniProt P11309); assay: Biochemical Assay for PIM1 Activity; conditions: 33P-ATP radiochemical assay, S6K/Rsk2 peptide 2 substrate
T1 construct: human full-length protein, 6×His tagged; 6xHis; host or cells: insect cells
Protocol: Biochemical Assay for PIM1 Activity
(§1) Purified PIM1 (NP_002639; human full-length protein, 6×His tagged) from insect cells (final concentration 1.0 nM) is added to freshly prepared Base Reaction Buffer containing 20 mM Hepes (pH 7.5), 10 mM MgCl2, 1 mM EGTA, 0.02% Brij35, 0.02 mg/ml BSA, 0.1 mM Na3VO4, 2 mM DTT, 1% DMSO and substrate S6K/Rsk2 peptide 2 [KKRNRTLTK] (20 μM final). Test compounds in DMSO are then added and the mixture, followed by delivery of ^33P-ATP (specific activity 10 μCi/μl final) to initiate the reaction. The kinase reaction is incubated for 120 min at room temperature. The entire reaction mixture is washed through onto a P81 Phosphocellulose paper and washed three times for 10 minutes in 75 mM phosphoric acid and once in methanol prior to drying and scintillation counting.

[2] = target: T2, PASK (Invitrogen) (Homo sapiens, UniProt Q96RG2); assay: PAS Kinase FRET Assay; type: biochemical; conditions: PAS kinase TR-FRET assay (665 nm/615 nm); read-out: IC50 Kinase Domain
T2 construct: IC50 Kinase Domain; purchased Invitrogen
Summary of the method: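 PASK phosphorylates a ULight-peptide with ATP in 50 mM HEPES, 10 mM MgCl2, 1 mM EGTA, 0.01% Tween-20, 2 mM DTT for 2 h at 25° C in the dark. Compounds are added as 4× serial dilutions (top 12×10^−5 M at 4×). After stopping, an Eu anti-phospho-substrate antibody is added for 1 h and TR-FRET is read at 665/615 nm.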

[3] = target: T3, CK2a2 (NP_001887; human full-length protein, GST tagged) (Homo sapiens, UniProt P19784); assay: Biochemical Assay for CK2 Activity; conditions: 33P-ATP radiochemical assay, CK2 sub [RRRDDDSDDD]
T3 construct: human full-length protein, GST tagged; GST; host or cells: insect cells
Protocol: Biochemical Assay for CK2 Activity
as §1, with “Purified CK2a2 (NP_001887;” for “Purified PIM1 (NP_002639;”, “protein, GST” for “protein, 6×His”, “concentration 1.2” for “concentration 1.0”, “and CK2 sub [RRRDDDSDDD]” for “and substrate S6K/Rsk2 peptide 2 [KKRNRTLTK]”, “activity 0.01” for “activity 10”

[4] = target: T4, PASK (UniProt #Q96RG2; human recombinant N-terminal GST tagged construct, residues 879-1323) (Homo sapiens, UniProt Q96RG2); assay: PASK ATP Radiochemical Assay; type: biochemical; conditions: 33P-ATP, Myelin Basic Protein substrate, read-out: IC50 Kinase Domain
T4 construct: N-terminal GST tagged construct, residues 879-1323; GST (N); host or cells: insect cells
Protocol: Biochemical Assay for hPASK Activity
PASK ATP Radiochemical Assay
as §1, with “Purified PASK (UniProt #Q96RG2;” for “Purified PIM1 (NP_002639;”, “human recombinant N-terminal GST tagged construct, residues 879-1323)” for “human full-length protein, 6×His tagged)”, “concentration 5” for “concentration 1.0”, “mM HEPES” for “mM Hepes”, “and Myelin Basic Protein” for “and substrate S6K/Rsk2 peptide 2 [KKRNRTLTK]”, “activity 0.01” for “activity 10”

T2 sequence (Q96RG2 999-1251 limits assumed): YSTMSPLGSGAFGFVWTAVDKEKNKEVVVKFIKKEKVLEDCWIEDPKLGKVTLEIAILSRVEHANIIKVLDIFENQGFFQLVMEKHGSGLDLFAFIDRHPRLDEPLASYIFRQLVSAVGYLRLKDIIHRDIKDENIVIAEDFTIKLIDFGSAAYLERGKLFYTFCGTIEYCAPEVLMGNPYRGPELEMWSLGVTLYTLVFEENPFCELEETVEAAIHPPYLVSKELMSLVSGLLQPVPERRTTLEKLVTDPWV
T3 sequence (P19784 whole entry): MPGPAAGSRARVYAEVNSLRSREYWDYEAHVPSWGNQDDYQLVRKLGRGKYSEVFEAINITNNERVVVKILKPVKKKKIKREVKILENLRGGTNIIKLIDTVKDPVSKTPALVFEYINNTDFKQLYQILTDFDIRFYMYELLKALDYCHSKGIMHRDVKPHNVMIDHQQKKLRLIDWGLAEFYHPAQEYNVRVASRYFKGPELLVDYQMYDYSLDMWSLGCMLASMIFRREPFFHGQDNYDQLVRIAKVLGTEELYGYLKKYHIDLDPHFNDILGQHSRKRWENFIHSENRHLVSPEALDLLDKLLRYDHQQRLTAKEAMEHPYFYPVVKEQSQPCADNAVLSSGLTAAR
T1 sequence (P11309 whole entry): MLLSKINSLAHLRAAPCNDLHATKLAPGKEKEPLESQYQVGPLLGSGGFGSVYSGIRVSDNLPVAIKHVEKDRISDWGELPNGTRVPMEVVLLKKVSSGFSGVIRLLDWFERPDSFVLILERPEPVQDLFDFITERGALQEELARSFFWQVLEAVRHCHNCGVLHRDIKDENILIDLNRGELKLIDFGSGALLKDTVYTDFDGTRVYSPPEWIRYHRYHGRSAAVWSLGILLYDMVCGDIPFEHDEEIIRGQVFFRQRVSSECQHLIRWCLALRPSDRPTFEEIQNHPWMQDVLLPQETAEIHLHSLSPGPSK
T4 sequence (Q96RG2 879-1323, stated change not applied): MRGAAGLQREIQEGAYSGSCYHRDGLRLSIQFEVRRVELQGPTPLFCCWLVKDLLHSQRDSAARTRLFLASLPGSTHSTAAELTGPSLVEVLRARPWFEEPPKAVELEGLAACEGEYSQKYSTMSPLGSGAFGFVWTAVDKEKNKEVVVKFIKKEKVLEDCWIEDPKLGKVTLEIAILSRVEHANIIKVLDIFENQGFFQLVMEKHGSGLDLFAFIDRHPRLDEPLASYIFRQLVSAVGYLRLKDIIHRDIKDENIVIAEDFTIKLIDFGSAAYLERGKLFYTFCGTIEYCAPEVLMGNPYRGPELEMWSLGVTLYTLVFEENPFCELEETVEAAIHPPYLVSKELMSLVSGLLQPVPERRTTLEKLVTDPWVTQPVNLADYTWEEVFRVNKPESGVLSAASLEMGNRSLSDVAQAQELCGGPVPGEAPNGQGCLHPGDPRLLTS

| IC50 [1] | IC50 [2] | IC50 [3] | IC50 [4] | Compound |
| --- | --- | --- | --- | --- |
| ≤ 10 µM | ≤ 10 µM | ≤ 10 µM | ≤ 10 µM | Cc1noc(-c2cnn3c(=O)cc(-c4ccc5c(cnn5C)c4)[nH]c23)n1 [Example 74, 3-(3-methyl-1,2,4-oxadiazol-5-yl)-5-(1-methyl-1H-indazol-5-yl)-4H,7H-pyrazolo[1,5-a]pyrimidin-7-one] |
| ≤ 10 µM | ≤ 10 µM | ≤ 10 µM | ≤ 10 µM | Cc1noc(-c2cnn3c(=O)cc(-c4ccc(Cl)c(Cl)c4)[nH]c23)n1 [Example 100, 5-(3,4-dichlorophenyl)-3-(3-methyl-1,2,4-oxadiazol-5-yl)-4H,7H-pyrazolo[1,5-a]pyrimidin-7-one] |
| ≤ 10 µM | ≤ 10 µM | ≤ 10 µM | ≤ 10 µM | CCc1coc(-c2cnn3c(=O)cc(-c4ccc5[nH]nnc5c4)[nH]c23)n1 [Example 15, 5-(1H-1,2,3-benzotriazol-5-yl)-3-(4-ethyl-1,3-oxazol-2-yl)-4H,7H-pyrazolo[1,5-a]pyrimidin-7-one] |
| ≤ 10 µM | ≤ 10 µM | > 10 µM | ≤ 10 µM | CCOc1cc(-c2cc(=O)n3ncc(-c4nc(C)co4)c3[nH]2)ccc1Cl [Example 21, 5-(4-chloro-3-ethoxyphenyl)-3-(4-methyl-1,3-oxazol-2-yl)-4H,7H-pyrazolo[1,5-a]pyrimidin-7-one] |
| ≤ 10 µM | ≤ 10 µM | ≤ 10 µM | ≤ 10 µM | CCn1ncc2cc(-c3cc(=O)n4ncc(-c5nc(C)co5)c4[nH]3)ccc21 [Example 13, 5-(1-Ethyl-1H-indazol-5-yl)-3-(4-methyl-1,3-oxazol-2-yl)-4H,7H-pyrazolo[1,5-a]pyrimidin-7-one] |
| ≤ 10 µM | ≤ 10 µM | ≤ 10 µM | ≤ 10 µM | Cn1nccc1-c1cnn2c(=O)cc(-c3ccc(Cl)c(Cl)c3)[nH]c12 [Example 98, 5-(3,4-dichlorophenyl)-3-(1-methyl-1H-pyrazol-5-yl)pyrazolo[1,5-a]pyrimidin-7(4H)-one] |
| ≤ 10 µM | ≤ 10 µM | ≤ 10 µM | ≤ 10 µM | Cc1nn2c(=O)cc(-c3ccc4c(c3)OCO4)[nH]c2c1-c1ncco1 [Example 2, 5-(2H-1,3-benzodioxol-5-yl)-2-methyl-3-(1,3-oxazol-2-yl)-4H,7H-pyrazolo[1,5-a]pyrimidin-7-one] |
| ≤ 10 µM | ≤ 10 µM | ≤ 10 µM | ≤ 10 µM | Cc1cnc(-c2cnn3c(=O)cc(-c4ccc5[nH]ncc5c4)[nH]c23)o1 [Example 24, 5-(1H-indazol-5-yl)-3-(5-methyloxazol-2-yl)pyrazolo[1,5-a]pyrimidin-7(4H)-one] |
| ≤ 10 µM | ≤ 10 µM | ≤ 10 µM | ≤ 10 µM | CCn1ncc2cc(-c3cc(=O)n4ncc(-c5cc(C)no5)c4[nH]3)ccc21 [Example 86, 5-(1-ethyl-1H-indazol-5-yl)-3-(3-methylisoxazol-5-yl)pyrazolo[1,5-a]pyrimidin-7(4H)-one] |
| ≤ 10 µM |  | ≤ 10 µM | ≤ 10 µM | CCn1ncc2cc(-c3cc(=O)n4ncc(-c5cc(C)n[nH]5)c4[nH]3)ccc21 [Example 68, 5-(1-ethyl-1H-indazol-5-yl)-3-(3-methyl-1H-pyrazol-5-yl)pyrazolo[1,5-a]pyrimidin-7(4H)-one] |
| ≤ 10 µM | ≤ 10 µM | ≤ 10 µM | ≤ 10 µM | CCn1nccc1-c1cnn2c(=O)cc(-c3ccc4c(cnn4CC)c3)[nH]c12 [Example 67, 5-(1-ethyl-1H-indazol-5-yl)-3-(1-ethyl-1H-pyrazol-5-yl)pyrazolo[1,5-a]pyrimidin-7(4H)-one] |
| ≤ 10 µM | ≤ 10 µM | ≤ 10 µM | ≤ 10 µM | CCn1nccc1-c1cnn2c(=O)cc(-c3ccc(Cl)cc3)[nH]c12 [Example 66, 5-(4-chlorophenyl)-3-(1-ethyl-1H-pyrazol-5-yl)pyrazolo[1,5-a]pyrimidin-7(4H)-one] |
| ≤ 10 µM | ≤ 10 µM | ≤ 10 µM | ≤ 10 µM | CCn1nccc1-c1cnn2c(=O)cc(-c3ccc4c(cnn4C)c3)[nH]c12 [Example 93, 3-(1-ethyl-1H-pyrazol-5-yl)-5-(1-methyl-1H-indazol-5-yl)pyrazolo[1,5-a]pyrimidin-7(4H)-one] |
| ≤ 10 µM | ≤ 10 µM | ≤ 10 µM | ≤ 10 µM | Cc1cnc(-c2cnn3c(=O)cc(-c4ccc5[nH]nnc5c4)[nH]c23)o1 [Example 5, 5-(1H-1,2,3-benzotriazol-5-yl)-3-(5-methyl-1,3-oxazol-2-yl)-4H,7H-pyrazolo[1,5-a]pyrimidin-7-one] |
| ≤ 10 µM | ≤ 10 µM | ≤ 10 µM | ≤ 10 µM | CCn1ncc2cc(-c3cc(=O)n4ncc(-c5c(C)cnn5C)c4[nH]3)ccc21 [Example 85, 3-(1,4-dimethyl-1H-pyrazol-5-yl)-5-(1-ethyl-1H-indazol-5-yl)-4H,7H-pyrazolo[1,5-a]pyrimidin-7-one] |
| ≤ 10 µM | ≤ 10 µM | ≤ 10 µM | ≤ 10 µM | Cc1cnc(-c2cnn3c(=O)cc(-c4ccc5c(c4)OCO5)[nH]c23)o1 [Example 3, 5-(2H-1,3-benzodioxol-5-yl)-3-(5-methyl-1,3-oxazol-2-yl)-4H,7H-pyrazolo[1,5-a]pyrimidin-7-one] |
| ≤ 10 µM | ≤ 10 µM | ≤ 10 µM | ≤ 10 µM | O=c1cc(-c2ccc(Cl)c(Cl)c2)[nH]c2c(-c3cc[nH]n3)cnn12 [Example 70, 5-(3,4-dichlorophenyl)-3-(1H-pyrazol-3-yl)pyrazolo[1,5-a]pyrimidin-7(4H)-one] |
| ≤ 10 µM | ≤ 10 µM | ≤ 10 µM | ≤ 10 µM | COc1cc(-c2cc(=O)n3ncc(-c4ccnn4C)c3[nH]2)ccc1F [Example 79, 5-(4-fluoro-3-methoxyphenyl)-3-(1-methyl-1H-pyrazol-5-yl)pyrazolo[1,5-a]pyrimidin-7(4H)-one] |
| ≤ 10 µM | ≤ 10 µM | ≤ 10 µM | ≤ 10 µM | CCc1coc(-c2cnn3c(=O)cc(-c4ccc5c(c4)OCO5)[nH]c23)n1 [Example 16, 5-(2H-1,3-benzodioxol-5-yl)-3-(4-ethyl-1,3-oxazol-2-yl)-4H,7H-pyrazolo[1,5-a]pyrimidin-7-one] |
| ≤ 10 µM | ≤ 10 µM | ≤ 10 µM | ≤ 10 µM | O=c1cc(-c2ccc(Cl)cc2)[nH]c2c(-c3nccs3)cnn12 [Example 57, 5-(4-chlorophenyl)-3-(thiazol-2-yl)pyrazolo[1,5-a]pyrimidin-7(4H)-one] |
| ≤ 10 µM | ≤ 10 µM | ≤ 10 µM | ≤ 10 µM | Cc1csc(-c2cnn3c(=O)cc(-c4ccc(Cl)cc4)[nH]c23)n1 [Example 58, 5-(4-chlorophenyl)-3-(4-methylthiazol-2-yl)pyrazolo[1,5-a]pyrimidin-7(4H)-one] |
| ≤ 10 µM | ≤ 10 µM | ≤ 10 µM | ≤ 10 µM | Cn1ncc2cc(-c3cc(=O)n4ncc(-c5ncco5)c4[nH]3)ccc21 [Example 73, 5-(1-methyl-1H-indazol-5-yl)-3-(oxazol-2-yl)-4H,7H-pyrazolo[1,5-a]pyrimidin-7-one] |
